From the NIST ThermoML archive (doi:10.1021/je200707b)

Experiments:
[1] = xn = mol fraction of the nth substance listed; settings: 101.3 kPa, Liquid; for viscosity: Falling or rolling sphere viscometry; for mass density: Vibrating tube method
[2] = refractive index (Na D-line) (dimensionless); xn = mol fraction of the nth substance listed; settings: 298.15 K, 101.3 kPa, Liquid, Standard Abbe refractometry

CC(=O)O.CCCCN [butylammonium acetate] + CCCCO
[1]
Settings	mass density, 293.15 K [kg/m3]	mass density, 298.15 K [kg/m3]	mass density, 303.15 K [kg/m3]	mass density, 308.15 K [kg/m3]	mass density, 313.15 K [kg/m3]	viscosity, 293.15 K [mPa·s]	viscosity, 298.15 K [mPa·s]	viscosity, 303.15 K [mPa·s]	viscosity, 308.15 K [mPa·s]	viscosity, 313.15 K [mPa·s]
x1 = 0.029	817.08	813.28	809.45	805.57	801.67	3.564	3.19	2.787	2.455	2.164
x1 = 0.0583	824.15	820.36	816.55	812.7	808.82	4.397	3.806	3.318	2.908	2.592
x1 = 0.1003	833.62	829.88	826.11	822.23	818.46	5.588	4.823	4.165	3.636	3.17
x1 = 0.1981	853.55	849.9	846.22	842.52	838.78	9.789	8.389	7.151	6.123	5.297
x1 = 0.2981	871.49	867.92	864.33	860.72	857.08	17.14	14.41	12.18	10.39	8.894
x1 = 0.399	887.71	884.21	880.69	877.17	873.62	28.33	23.48	19.6	16.5	14
x1 = 0.497	901.99	898.53	895.09	891.62	888.15	50.23	41.01	33.21	28.45	23.98
x1 = 0.6489	921.84	918.48	915.12	911.75	908.37	107.74	86.03	69.14	56.31	45.89
x1 = 0.7984	939.21	935.95	932.68	929.4	926.1	225.04	170.61	138.1	109.79	87.65
x1 = 0.9003	949.8	946.58	943.37	940.16	936.93	389.54	287.99	216.86	167.15	129.84

[2]
Settings	refractive index
x1 = 0.029	1.3999
x1 = 0.0583	1.4023
x1 = 0.1003	1.4053
x1 = 0.1981	1.4115
x1 = 0.2981	1.417
x1 = 0.399	1.4217
x1 = 0.497	1.4256
x1 = 0.6489	1.4314
x1 = 0.7984	1.4366
x1 = 0.9003	1.4399

CC(=O)O.CCCCN [butylammonium acetate] + CCCO
[1]
Settings	mass density, 293.15 K [kg/m3]	mass density, 298.15 K [kg/m3]	mass density, 303.15 K [kg/m3]	mass density, 308.15 K [kg/m3]	mass density, 313.15 K [kg/m3]	viscosity, 293.15 K [mPa·s]	viscosity, 298.15 K [mPa·s]	viscosity, 303.15 K [mPa·s]	viscosity, 308.15 K [mPa·s]	viscosity, 313.15 K [mPa·s]
x1 = 0.0315	814.1	810.13	806.12	802.09	798.01	2.862	2.496	2.202	1.955	1.672
x1 = 0.0601	822.82	818.91	814.95	810.95	806.91	3.515	3.158	2.773	2.447	2.167
x1 = 0.0977	833.38	829.52	825.63	821.7	817.72	4.733	4.116	3.595	3.157	2.828
x1 = 0.198	857.48	853.76	850	846.22	842.42	8.602	7.371	6.367	5.493	4.77
x1 = 0.3002	877.71	874.1	870.46	866.8	863.11	17.5	14.77	12.51	10.66	9.154
x1 = 0.4021	894.7	891.19	887.65	884.1	880.52	31.54	26.08	22.23	18.48	15.72
x1 = 0.497	908.39	904.94	901.48	898.01	894.53	47.48	38.69	31.74	26.4	22.13
x1 = 0.6487	927.09	923.74	920.37	917	913.6	108.49	87.22	70.42	56.62	46.76
x1 = 0.799	942.52	939.27	936.01	932.73	929.43	244.69	186.83	148.78	116.88	93.14
x1 = 0.8981	951.47	948.25	945.03	941.83	938.61	445.2	326.53	244.83	186.41	144.84

[2]
Settings	refractive index
x1 = 0.0315	1.3875
x1 = 0.0601	1.3912
x1 = 0.0977	1.3953
x1 = 0.198	1.4045
x1 = 0.3002	1.4122
x1 = 0.4021	1.4185
x1 = 0.497	1.4236
x1 = 0.6487	1.4305
x1 = 0.799	1.4362
x1 = 0.8981	1.4395
